Experimental data taken from US8623919B2, “Method of synthesizing S-allyl-cysteine analogues and their therapeutic application in treating myocardial infarction” (Fudan University, priority 2007, dated 2014).

How the values were obtained:
H9c2 cells [1] = assay: H9c2 cell viability by MTT method after H2O2 injury; type: cell-based; conditions: H2O2 200 μmol/L 2 hours; SPRC Low Dose 10^−7 mol/L
Description: H9c2 cells were cultured in DMEM with 10% of fetal bovine serum, 37 degree C. and 5% CO2 incubator. The monolayer culture was split at a 1:4 ratio or harvested to perform experiments when confluence was 70-80%. Adjust the density of the cells to […] and inoculate the cells on a 96 well plate.
Control group, no SAC analogues treatment, no H2O2 injured process.
H2O2 injury (Model) group, no SAC analogues treatment, under H2O2 200 μmol/L for 2 hours.
PAG group, PAG 10^−4/mol/L
SPRC dosage groups: SPRC 1E-7, SPRC 1E-6, SPRC 1E-5, the cell groups were treated with SPRC dosages of 10^−7 mol/L, 10^−6 mol/L, 10^−5 mol/L respectively.
SPRC dosage+PAG groups: the cell group was treated with SPRC dosages of 10^−5 mol/L and PAG 10^−4 mol/L.
H9c2 cell viability was assessed by MTT method. […] PAG is able to block the effect of SPRC.

myocardial cells [2] = assay: SOD activity (Hydroxylamine method) in hypoxia/reoxygenation injured myocardial cells; type: cell-based, Sprague-Dawley (SD) rat
Description: Myocardial cell samples were obtained from the same procedure of Example 1, the experiment groups were divided and hypoxia/reoxygenation experiments were performed on Control group, Vehicle group, SAC and analogue groups, same as the experiments in Example 1 with the same dosages and same conditions. Myocardial cells were obtained from each sample (10^6 myocardial cells/sample) from the Control group, Vehicle group, SAC and analogue groups. The cells were lysed under sterilized condition, and SOD (superoxide dismutase) activities in each sample of the cells were determined by Hydroxylamine method (a conventional method well known in the arts) using each microgram of protein per 1 milliliter reaction solution inhibits SOD activity to its 50% of original activity, in which the amount of SOD used in the reaction as standard of 1 unit of SOD activity.

CSE = target: T1, CSE (Rattus norvegicus, UniProt P18757); assay: Left ventricular CSE activity in tissue homogenates of rats; type: in vivo, SD rats; conditions: 50 mg/Kg/day; for CSE activity: left ventricle
T1 construct: from tissue; host or cells: rat left ventricle (homogenate), myocardial infarction model
T1 sequence (P18757 whole entry): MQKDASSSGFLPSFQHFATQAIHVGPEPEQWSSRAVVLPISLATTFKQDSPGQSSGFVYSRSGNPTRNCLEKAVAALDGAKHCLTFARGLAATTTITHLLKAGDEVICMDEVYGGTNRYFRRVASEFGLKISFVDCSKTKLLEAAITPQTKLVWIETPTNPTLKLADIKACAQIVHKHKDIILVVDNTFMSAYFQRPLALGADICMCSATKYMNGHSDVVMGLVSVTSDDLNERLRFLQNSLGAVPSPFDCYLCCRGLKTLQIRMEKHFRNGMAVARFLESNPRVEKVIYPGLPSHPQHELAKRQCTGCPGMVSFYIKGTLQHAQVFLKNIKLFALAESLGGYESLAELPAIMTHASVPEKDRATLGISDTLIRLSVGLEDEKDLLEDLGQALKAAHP
Description: (§1) Animals were assigned and prepared the same as in Example 7, and dosages of SPRC and SAC were used the same in this example as in Example 7.
The plasma levels of H2S in each treatment group were determined since CSE mediates the endogenous production of H2S in mammals. Plasma H2S concentrations in MI group rats at 48 h after MI induction were 34.7±5.6 μM (n=8). […] Left ventricular CSE activity was analyzed in the tissue homogenates from each treatment group (n=6). CSE activity was 1.58±0.15 μmol/g protein/hr in left the ventricular tissues in MI group and 2.19±0.32 μmol/g protein/hr in the MI+SAC treated rats.
SPRC administered rats had the highest CSE activity of 2.58±0.07 μmol/g protein/hr (p<0.01) (FIG. 15B). This observation correlated with the observed increases in H2S concentrations in the same treatment groups.

H9c2 cells [3] = assay: Endogenous H2S level in H2O2 injured H9c2 cells; type: cell-based; conditions: SPRC treatments
Description: (§2) Similar experiments are done on cultured H9c2 cardiac muscle cells groups with the same experiment condition and different dosages of SPRC treatments. The results of the experiments confirm that endogenous H2S level in H2O2 injured H9c2 cells is elevated by SPRC treatments. […] It is also observed that the apoptosis of hypoxic myocardial cells is decreased, the survival rate of the in H2O2 injured H9c2 cells is increased and the LDH releasing from the in H2O2 injured H9c2 cells are reduced by three dosages of SPRC treatment.

myocardial cells [4] = assay: Lipid peroxidation (MDA, TBA) in hypoxia/reoxygenation injured myocardial cells; type: cell-based, Sprague-Dawley (SD) rat; conditions: 10^−5 mol/L
Description: Myocardial cell samples were obtained from the same procedure of Example 1, the experiment groups were divided and hypoxia/reoxygenation experiments were performed on Control group, Vehicle group, SAC and analogue groups, same as the experiments in Example 1 with the same dosages and same conditions. Myocardial cells were obtained from each sample (10^6 myocardial cells/sample) from the Control group, Vehicle group, SAC and analogue groups. The cells were lysed under sterilized condition, and lipid peroxidation experiments on the samples were performed. Since oxygen free radical attacks poly unsaturated fatty acid in biomembrane, inducing lipid peroxidation and producing MDA (malondialdehyde). MDA can react with thiobarbituric acid (TBA), forms red product, which can be detected in spectrophotometer at 532 nm. […] The inhibition effect could be reversed by PAG.

rats following MI injury [5] = assay: MDA content (TBA assay) in rats (sham or MI); type: in vivo, SD rats; conditions: Sham rats; 50 mg/Kg/day intraperitoneal
Description: as §1
(§3) Serum CK levels were detected with diagnostic kit (NJBI, China) according to the instructions. LDH were determined calorimetrically with a spectrophotometer. Lipid peroxidation was measured in terms of MDA content using the thiobarbituric acid (TBA) assay. […] With regard to lipid peroxidation, the levels of MDA in MI groups increased at 48 h after myocardial infarction. […] (FIG. 14)

H9c2 cells [6] = assay: Catalase activity in H2O2 injured H9c2 cells; type: cell-based; conditions: SPRC treatments
Description: as §2

Bcl-2 mRNA = assay: RT-PCR of Bcl-2 mRNA in left ventricle; type: in vivo, SD rats; conditions: MI rats, 50 mg/Kg/day, p>0.05
Description: as §1
To further verify the effects of SPRC and SAC, the expressions of Bcl-2, Bax and CSE mRNA were accessed by RT-PCR (FIG. 17). An isoform of the CSE gene was detected (GenBank; access no. AY641456). The relative amounts of CSE mRNA in Left ventricular subjected to MI were increase 3.3-fold and 1.5-fold following SPRC and SAC exposure as compared to the MI group.

Bcl-2 = assay: Western blot of Bcl-2 protein in left ventricle; type: in vivo, SD rats; conditions: MI rats, 50 mg/Kg/day, p<0.01
Description: as §1

rats following MI injury [7] = assay: SOD activity in plasma of rats (sham or MI); type: in vivo, SD rats; conditions: 50 mg/Kg/day intraperitoneal
Description: as §1, §3

## C#CCSC[C@H](N)C(=O)O [SPRC, S-propargyl-cysteine]
H9c2 cells [1]
  H9c2 Cell Survive: 62.4 ± 1.6%
Myocardial cells [2]; 10^−5 mol/L
  Mn-SOD activity in mitochondria: able to elevate
Myocardial cells [2]; with PAG
  effect of PAG on elevating Mn-SOD activity: PAG also reversed
CSE; MI rats
  CSE activity: 2.58 ± 0.07 μM/mgprot
CSE; MI rats, left ventricular tissue homogenates, MI group 1.58±0.15
  Left ventricular CSE activity: 2.58±0.07 μmol/g protein/hr
CSE; Sham rats
  CSE activity: 2.41 ± 0.12 μM/mgprot
H9c2 cells [3]
  endogenous H2S level: elevated
Myocardial cells [4]
  lipid peroxidation (MDA): inhibited
Rats following MI injury [5]
  MDA: 3.79 ± 0.40 nmol/mL
H9c2 cells [6]
  catalase activity: elevated
Bcl-2 mRNA
  Bcl-2 gene expression: no significant differences
Bcl-2
  Bcl-2 protein expression: up-regulated
Rats following MI injury [7]; MI rats, 48 h after MI
  SOD: 113.8 ± 1.5 U/ml
Rats following MI injury [7]; Sham rats
  SOD: 161.2 ± 3.8 U/ml
